Drawing on PubChem BioAssay AID248 (DTP/NCI, 2004), this text covers T/C for 19 compounds.

Toxic doses and inconclusive results are not listed.

The subject of this test is L1210 leukemia ip in BDF1 mice, survival T/C. Briefly: NCI In Vivo Anticancer Drug Screen. Data for tumor model L1210 Leukemia (intraperitoneal) in B6D2F1 (BDF1) mice. Conditions: endpoint: mean survival time, higher = longer survival. In a few lines: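 Tumor cells were implanted, animals were treated, and survival was followed. The result divides the treated measurement by the vehicle-control measurement.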

The mark [1] stands for this setting: dose: 100.0 mg/kg/injection, schedule: Q01DX001 (ip), vehicle: carboxymethylcellulose (CMC).
The mark [2] stands for this setting: dose: 200.0 mg/kg/injection, schedule: Q01DX001 (ip), vehicle: carboxymethylcellulose (CMC).
Setting [3] is: dose: 400.0 mg/kg/injection, schedule: Q01DX001 (ip), vehicle: carboxymethylcellulose (CMC).
[4] abbreviates: dose: 100.0 mg/kg/injection, schedule: Q04DX002 (ip), vehicle: Klucel (hydroxypropylcellulose) (HPC).
The mark [5] stands for this setting: dose: 200.0 mg/kg/injection, schedule: Q04DX002 (ip), vehicle: Klucel (hydroxypropylcellulose) (HPC).
Where [6] appears, read: dose: 100.0 mg/kg/injection, schedule: Q01DX009 (ip), vehicle: Klucel (hydroxypropylcellulose) (HPC).
[7] abbreviates: dose: 100.0 mg/kg/injection, schedule: Q04DX003 (ip), vehicle: Klucel (hydroxypropylcellulose) (HPC).
[8] abbreviates: dose: 200.0 mg/kg/injection, schedule: Q01DX009 (ip), vehicle: Klucel (hydroxypropylcellulose) (HPC).
[9] abbreviates: dose: 200.0 mg/kg/injection, schedule: Q04DX003 (ip), vehicle: Klucel (hydroxypropylcellulose) (HPC).
Where [10] appears, read: dose: 400.0 mg/kg/injection, schedule: Q04DX003 (ip), vehicle: Klucel (hydroxypropylcellulose) (HPC).
Where [11] appears, read: dose: 75.0 mg/kg/injection, schedule: Q01DX001 (ip), vehicle: saline.
Where [12] appears, read: dose: 150.0 mg/kg/injection, schedule: Q01DX001 (ip), vehicle: saline.

As for `OCC1OCOC(CI)C(O)C1O` (centres undefined), the T/C is 97 % of control under setting [1], 101 % of control under setting [2] and 97 % of control under setting [3].

As to `COc1ccc(/C=C/C=C/C(=O)O)cc1OC`, the T/C is, setting by setting: (dose: 50.0 mg/kg/injection, schedule: Q01DX001 (ip), vehicle: other) 102 % of control; (dose: 100.0 mg/kg/injection, schedule: Q01DX001 (ip), vehicle: other) 98 % of control; (dose: 200.0 mg/kg/injection, schedule: Q01DX001 (ip), vehicle: other) 107 % of control; (dose: 400.0 mg/kg/injection, schedule: Q01DX001 (ip), vehicle: other) 91 % of control.

With `Cc1ccc(OCC(N)=O)cc1`, the T/C was 100 % of control (dose: 50.0 mg/kg/injection, schedule: Q04DX002 (ip), vehicle: Klucel (hydroxypropylcellulose) (HPC)); 113 % of control under setting [4]; 103 % of control under setting [5].

Turning to `CC[n+]1c(C)ccc2ccccc21`, the T/C runs as follows: (dose: 25.0 mg/kg/injection, schedule: Q01DX009 (ip), vehicle: Klucel (hydroxypropylcellulose) (HPC)) 91 % of control; (dose: 25.0 mg/kg/injection, schedule: Q04DX003 (ip), vehicle: Klucel (hydroxypropylcellulose) (HPC)) 99 % of control; (dose: 50.0 mg/kg/injection, schedule: Q01DX001 (ip), vehicle: saline) 95 % of control; (dose: 50.0 mg/kg/injection, schedule: Q01DX009 (ip), vehicle: Klucel (hydroxypropylcellulose) (HPC)) 91 % of control; (dose: 50.0 mg/kg/injection, schedule: Q04DX003 (ip), vehicle: Klucel (hydroxypropylcellulose) (HPC)) 99 % of control.

In the case of `CCCCCCCCC(=O)N1CCCC(C)C1` (centres undefined), the T/C reads like this: (dose: 100.0 mg/kg/injection, schedule: Q04DX002 (ip), vehicle: saline) 104 % of control; (dose: 200.0 mg/kg/injection, schedule: Q04DX002 (ip), vehicle: saline) 117 % of control; (dose: 400.0 mg/kg/injection, schedule: Q04DX002 (ip), vehicle: saline) 101 % of control.

Take `COc1cc(OC)c([N+](=O)[O-])cc1Cl`: the T/C was 96 % of control under setting [6]; 96 % of control under setting [7]; 96 % of control under setting [8]; 93 % of control under setting [9]; 92 % of control (dose: 400.0 mg/kg/injection, schedule: Q01DX009 (ip), vehicle: Klucel (hydroxypropylcellulose) (HPC)); 94 % of control under setting [10].

`CC(=O)N1c2ccccc2C(=O)OC1c1ccc2c(c1)CCC2` (centres undefined): the T/C runs as follows: under setting [7], 94 % of control; under setting [9], 89 % of control; under setting [10], 102 % of control.

For `O=C(OCC1OC(OC(=O)c2ccccc2)C(OC(=O)c2ccccc2)C(OC(=O)c2ccccc2)C1OC(=O)c1ccccc1)c1ccccc1` (centres undefined), the T/C (dose: 100.0 mg/kg/injection, schedule: Q01DX001 (ip), vehicle: saline) is 98 % of control; the T/C (dose: 200.0 mg/kg/injection, schedule: Q01DX001 (ip), vehicle: saline) was 98 % of control; the T/C (dose: 400.0 mg/kg/injection, schedule: Q01DX001 (ip), vehicle: saline) is 106 % of control.

As to `Cc1nc(C(=O)O)c(=O)[nH]c1C`, the T/C (dose: 50.0 mg/kg/injection, schedule: Q01DX009 (ip), vehicle: water) was 103 % of control; the T/C (dose: 100.0 mg/kg/injection, schedule: Q01DX009 (ip), vehicle: water) was 103 % of control; the T/C (dose: 100.0 mg/kg/injection, schedule: Q04DX003 (ip), vehicle: water) was 102 % of control; the T/C (dose: 200.0 mg/kg/injection, schedule: Q01DX009 (ip), vehicle: water) is 101 % of control; the T/C (dose: 200.0 mg/kg/injection, schedule: Q04DX003 (ip), vehicle: water) is 101 % of control.

Turning to `Cc1ccccc1Nc1c(C)cccc1C(=O)O`, the T/C (dose: 100.0 mg/kg/injection, schedule: Q01DX009 (ip), vehicle: saline) was 100 % of control; the T/C (dose: 200.0 mg/kg/injection, schedule: Q01DX009 (ip), vehicle: saline) was 92 % of control; the T/C (dose: 400.0 mg/kg/injection, schedule: Q01DX009 (ip), vehicle: saline) is 86 % of control.

Consider `CC(=O)Nc1ccccc1C(C)=O`, for which the T/C (dose: 100.0 mg/kg/injection, schedule: Q04DX003 (ip), vehicle: saline with Tween-80) is 92 % of control; the T/C (dose: 200.0 mg/kg/injection, schedule: Q04DX003 (ip), vehicle: saline with Tween-80) is 93 % of control; the T/C (dose: 400.0 mg/kg/injection, schedule: Q04DX003 (ip), vehicle: saline with Tween-80) was 93 % of control.

As to `CCCCCCC(C(=O)OCC)P(=O)(OCC)OCC` (centres undefined), the T/C is 101 % of control under setting [11]; 94 % of control under setting [12]; 100 % of control (dose: 300.0 mg/kg/injection, schedule: Q01DX001 (ip), vehicle: saline).

Consider `Cc1c2c(cc3c1[nH]c1ccccc13)C(C)N(C)CC2` (centres undefined), for which the T/C (dose: 14.6 mg/kg/injection, schedule: Q01DX Z (ip), vehicle: saline) was 110 % of control; the T/C (dose: 22.0 mg/kg/injection, schedule: Q01DX Z (ip), vehicle: saline) is 111 % of control; the T/C (dose: 32.5 mg/kg/injection, schedule: Q01DX015 (ip), vehicle: carboxymethylcellulose (CMC)) is 107 % of control; the T/C (dose: 33.0 mg/kg/injection, schedule: Q01DX Z (ip), vehicle: saline) is 113 % of control; the T/C (dose: 50.0 mg/kg/injection, schedule: Q01DX001 (ip), vehicle: carboxymethylcellulose (CMC)) was 109 % of control; the T/C (dose: 50.0 mg/kg/injection, schedule: Q01DX Z (ip), vehicle: saline) was 119 % of control. Also, the T/C is, setting by setting: (dose: 75.0 mg/kg/injection, schedule: Q01DX015 (ip), vehicle: carboxymethylcellulose (CMC)) 108 % of control; under setting [1], 109 % of control; (dose: 150.0 mg/kg/injection, schedule: Q01DX015 (ip), vehicle: carboxymethylcellulose (CMC)) 118 % of control; (dose: 150.0 mg/kg/injection, schedule: Q01DX Z (ip), vehicle: saline) 166 % of control; under setting [2], 106 % of control; (dose: 200.0 mg/kg/injection, schedule: Q01DX Z (ip), vehicle: carboxymethylcellulose (CMC)) 100 % of control. Also, the T/C (dose: 300.0 mg/kg/injection, schedule: Q01DX015 (ip), vehicle: carboxymethylcellulose (CMC)) was 118 % of control; the T/C (dose: 300.0 mg/kg/injection, schedule: Q01DX Z (ip), vehicle: carboxymethylcellulose (CMC)) is 107 % of control; the T/C under setting [3] was 98 % of control; the T/C (dose: 750.0 mg/kg/injection, schedule: Q01DX001 (ip), vehicle: carboxymethylcellulose (CMC)) is 110 % of control; the T/C (dose: 1500.0 mg/kg/injection, schedule: Q01DX001 (ip), vehicle: carboxymethylcellulose (CMC)) is 114 % of control.

Take `O=C1OCCC1n1cc(F)c(=O)[nH]c1=O` (centres undefined): the T/C by setting is: under setting [7], 102 % of control; under setting [9], 98 % of control; under setting [10], 96 % of control.

For `C=CCN(CC=C)S(=O)(=O)c1cccc(C(=O)O)c1`, the T/C under setting [7] was 103 % of control, the T/C under setting [9] was 92 % of control and the T/C under setting [10] was 105 % of control.

Consider `Cc1cc(Br)ccc1N`, for which the T/C runs as follows: (dose: 100.0 mg/kg/injection, schedule: Q01DX009 (ip), vehicle: saline with Tween-80) 99 % of control; (dose: 200.0 mg/kg/injection, schedule: Q01DX009 (ip), vehicle: saline with Tween-80) 95 % of control; (dose: 400.0 mg/kg/injection, schedule: Q01DX009 (ip), vehicle: saline with Tween-80) 99 % of control.

For `CC1CC(=O)C(CN(C)C)C(C)(C)C1` (centres undefined), the T/C runs as follows: under setting [11], 106 % of control; under setting [12], 100 % of control.

Regarding `CSc1ccc(/C=N/NC(N)=S)cc1`, the T/C under setting [6] was 103 % of control; the T/C under setting [7] was 106 % of control; the T/C under setting [8] was 92 % of control; the T/C under setting [9] is 106 % of control; the T/C under setting [10] is 108 % of control.

`CC(=O)OCCS(=O)(=O)c1c(Cl)c(Cl)c(Cl)c(Cl)c1Cl`: the T/C runs as follows: under setting [4], 95 % of control; under setting [5], 88 % of control.
